Experimental data published in article PMC4551390 (Leukemia, 2015).

Assays:
Type in all cases: in vivo, human
[1] = system: relapsed and refractory CLL patients; test: Phase I dose escalation: toxicity and tolerability
[2] = system: relapsed and refractory CLL patients; test: Phase I dose escalation: clinical response and PFS
tumor FDG uptake (SUV) = test: FDG PET/CT tumor metabolic response; conditions: Baseline vs Cycle 1 Day 22; 29 subjects scanned, 4 not evaluable
XIAP = test: Western blot protein expression in patient samples; conditions: 2 and 4 hours of treatment vs pretreatment
[3] = treatment related, all cohorts, N=52

SMILES: CCc1cnn2c(NCc3ccc[n+]([O-])c3)cc(N3CCCC[C@H]3CCO)nc12 [Dinaciclib]
- maximally tolerated dose ([1]; 2 hour infusion weekly x 3 of every 4 weeks): 14 mg/m^2
- other patients who discontinued therapy due to toxicity ([1]; all patients): Five
- patients off therapy for adverse events ([1]; all patients): 10%
- deaths within 30 days of last dose ([1]; all patients, two due to disease progression): 3
- No Pts with Dose Reduction ([1]; cohort 5 mg/m^2): 0
- Pts with DLT ([1]; cohort 5 mg/m^2): 0
- No Pts with Dose Reduction ([1]; cohort 7 mg/m^2): 0
- Pts with DLT ([1]; cohort 7 mg/m^2): 1
- No Pts with Dose Reduction ([1]; cohort 10 mg/m^2): 1
- Pts with DLT ([1]; cohort 10 mg/m^2): 0
- No Pts with Dose Reduction ([1]; cohort 14 mg/m^2): 5
- Pts with TLS ([1]; cohort 14 mg/m^2): 4
- Pts with TLS (Dialysis) ([1]; cohort 14 mg/m^2, requiring dialysis): 1
- No Pts with Dose Reduction ([1]; cohort 17 mg/m^2): 1
- Pts with TLS ([1]; cohort 17 mg/m^2): 1 (1)
- Pts with TLS (Dialysis) ([1]; cohort 17 mg/m^2, requiring dialysis): 1 (1)
- No Pts with Dose Reduction ([1]; cohort 7→10→14 mg/m^2): 1
- Pts with TLS ([1]; cohort 7→10→14 mg/m^2): 1 (1)
- No Pts with Dose Reduction ([1]; cohort 10→14 mg/m^2): 1
- Pts with TLS ([1]; cohort 10→14 mg/m^2): 2
- Anemia, Grade 1 [1, 3]: 8 (15) No (%)
- Anemia, Grade 2 [1, 3]: 17 (33) No (%)
- Anemia, Grade 3 [1, 3]: 14 (27) No (%)
- Anemia, Grade 4 [1, 3]: 1 (2) No (%)
- Anemia, Total [1, 3]: 40 (77) No (%)
- Constipation, Grade 1 [1, 3]: 4 (8) No (%)
- Constipation, Grade 2 [1, 3]: 1 (2) No (%)
- Constipation, Grade 3 [1, 3]: 1 (2) No (%)
- Constipation, Grade 4 [1, 3]: 0 (0) No (%)
- Constipation, Total [1, 3]: 6 (12) No (%)
- Cytokine release, Grade 1 [1, 3]: 1 (2) No (%)
- Cytokine release, Grade 2 [1, 3]: 6 (12) No (%)
- Cytokine release, Grade 3 [1, 3]: 1 (2) No (%)
- Cytokine release, Grade 4 [1, 3]: 0 (0) No (%)
- Cytokine release, Total [1, 3]: 8 (15) No (%)
- Diarrhea, Grade 1 [1, 3]: 14 (27) No (%)
- Diarrhea, Grade 2 [1, 3]: 7 (13) No (%)
- Diarrhea, Grade 3 [1, 3]: 2 (4) No (%)
- Diarrhea, Grade 4 [1, 3]: 0 (0) No (%)
- Diarrhea, Total [1, 3]: 23 (44) No (%)
- Fatigue, Grade 1 [1, 3]: 7 (13) No (%)
- Fatigue, Grade 2 [1, 3]: 8 (15) No (%)
- Fatigue, Grade 3 [1, 3]: 2 (4) No (%)
- Fatigue, Grade 4 [1, 3]: 0 (0) No (%)
- Fatigue, Total [1, 3]: 17(33) No (%)
- Herpes infection, Grade 1 [1, 3]: 2 (4) No (%)
- Herpes infection, Grade 2 [1, 3]: 1 (2) No (%)
- Herpes infection, Grade 3 [1, 3]: 0 (0) No (%)
- Herpes infection, Grade 4 [1, 3]: 0 (0) No (%)
- Herpes infection, Total [1, 3]: 3 (6) No (%)
- Hyperglycemia, Grade 1 [1, 3]: 8 (15) No (%)
- Hyperglycemia, Grade 2 [1, 3]: 16 (31) No (%)
- Hyperglycemia, Grade 3 [1, 3]: 11 (21) No (%)
- Hyperglycemia, Grade 4 [1, 3]: 0 (0) No (%)
- Hyperglycemia, Total [1, 3]: 35 (67) No (%)
- Hyperkalemia, Grade 1 [1, 3]: 7 (13) No (%)
- Hyperkalemia, Grade 2 [1, 3]: 3 (6) No (%)
- Hyperkalemia, Grade 3 [1, 3]: 3 (6) No (%)
- Hyperkalemia, Grade 4 [1, 3]: 3 (6) No (%)
- Hyperphosphatemia, Grade 1 [1, 3]: 6 (12) No (%)
- Hyperphosphatemia, Grade 2 [1, 3]: 1 (2) No (%)
- Hyperphosphatemia, Grade 3 [1, 3]: 0 (0) No (%)
- Hyperphosphatemia, Grade 4 [1, 3]: 0 (0) No (%)
- Hyperphosphatemia, Total [1, 3]: 7 (13) No (%)
- Hypoalbuminemia, Grade 1 [1, 3]: 12 (23) No (%)
- Hypoalbuminemia, Grade 2 [1, 3]: 3 (6) No (%)
- Hypoalbuminemia, Grade 3 [1, 3]: 0 (0) No (%)
- Hypoalbuminemia, Grade 4 [1, 3]: 0 (0) No (%)
- Hypoalbuminemia, Total [1, 3]: 15 (29) No (%)
- Hypocalcemia, Grade 1 [1, 3]: 17 (33) No (%)
- Hypocalcemia, Grade 2 [1, 3]: 1 (2) No (%)
- Hypocalcemia, Grade 3 [1, 3]: 9 (17) No (%)
- Hypocalcemia, Grade 4 [1, 3]: 0 (0) No (%)
- Hypocalcemia, Total [1, 3]: 27 (52) No (%)
- Hypokalemia, Grade 1 [1, 3]: 17 (33) No (%)
- Hypokalemia, Grade 2 [1, 3]: 1 (2) No (%)
- Hypokalemia, Grade 3 [1, 3]: 9 (17) No (%)
- Hypokalemia, Grade 4 [1, 3]: 0 (0) No (%)
- Hypokalemia, Total [1, 3]: 27 (52) No (%)
- Hyponatremia, Grade 1 [1, 3]: 18 (35) No (%)
- Hyponatremia, Grade 2 [1, 3]: 0 (0) No (%)
- Hyponatremia, Grade 3 [1, 3]: 1 (2) No (%)
- Hyponatremia, Grade 4 [1, 3]: 0 (0) No (%)
- Hyponatremia, Total [1, 3]: 19 (37) No (%)
- Hypophosphatemia, Grade 1 [1, 3]: 6 (12) No (%)
- Hypophosphatemia, Grade 2 [1, 3]: 5 (10) No (%)
- Hypophosphatemia, Grade 3 [1, 3]: 6 (12) No (%)
- Hypophosphatemia, Grade 4 [1, 3]: 1 (2) No (%)
- Hypophosphatemia, Total [1, 3]: 18 (35) No (%)
- Increased ALT, Grade 1 [1, 3]: 6 (12) No (%)
- Increased ALT, Grade 2 [1, 3]: 9 (17) No (%)
- Increased ALT, Grade 3 [1, 3]: 5 (10) No (%)
- Increased ALT, Grade 4 [1, 3]: 0 (0) No (%)
- Increased ALT, Total [1, 3]: 20 (38) No (%)
- Increased AST, Grade 1 [1, 3]: 11 (21) No (%)
- Increased AST, Grade 2 [1, 3]: 8 (15) No (%)
- Increased AST, Grade 3 [1, 3]: 13 (25) No (%)
- Increased AST, Grade 4 [1, 3]: 2 (4) No (%)
- Increased AST, Total [1, 3]: 34 (65) No (%)
- Increased Alkaline Phosphatase, Grade 1 [1, 3]: 8 (15) No (%)
- Increased Alkaline Phosphatase, Grade 2 [1, 3]: 1 (2) No (%)
- Increased Alkaline Phosphatase, Grade 3 [1, 3]: 0 (0) No (%)
- Increased Alkaline Phosphatase, Grade 4 [1, 3]: 0 (0) No (%)
- Increased Alkaline Phosphatase, Total [1, 3]: 9 (17) No (%)
- Increased bilirubin, Grade 1 [1, 3]: 5 (10) No (%)
- Increased bilirubin, Grade 2 [1, 3]: 0 (0) No (%)
- Increased bilirubin, Grade 3 [1, 3]: 0 (0) No (%)
- Increased bilirubin, Grade 4 [1, 3]: 0 (0) No (%)
- Increased bilirubin, Total [1, 3]: 5 (10) No (%)
- Increased creatinine, Grade 1 [1, 3]: 11 (21) No (%)
- Increased creatinine, Grade 2 [1, 3]: 3 (6) No (%)
- Increased creatinine, Grade 3 [1, 3]: 0 (0) No (%)
- Increased creatinine, Grade 4 [1, 3]: 0 (0) No (%)
- Increased creatinine, Total [1, 3]: 14 (27) No (%)
- Nausea, Grade 1 [1, 3]: 10 (19) No (%)
- Nausea, Grade 2 [1, 3]: 3 (6) No (%)
- Nausea, Grade 3 [1, 3]: 0 (0) No (%)
- Nausea, Grade 4 [1, 3]: 0 (0) No (%)
- Nausea, Total [1, 3]: 13 (25) No (%)
- Neutropenia, Grade 1 [1, 3]: 3 (6) No (%)
- Neutropenia, Grade 2 [1, 3]: 2 (4) No (%)
- Neutropenia, Grade 4 [1, 3]: 28 (54) No (%)
- Neutropenia, Total [1, 3]: 44 (85) No (%)
- Pharyngitis/sinusitis/respiratory infection, Grade 1 [1, 3]: 2 (4) No (%)
- Pharyngitis/sinusitis/respiratory infection, Grade 2 [1, 3]: 2 (4) No (%)
- Pharyngitis/sinusitis/respiratory infection, Grade 3 [1, 3]: 0 (0) No (%)
- Pharyngitis/sinusitis/respiratory infection, Grade 4 [1, 3]: 0 (0) No (%)
- Pharyngitis/sinusitis/respiratory infection, Total [1, 3]: 4 (8) No (%)
- Pneumonia, Grade 1 [1, 3]: 0 (0) No (%)
- Pneumonia, Grade 2 [1, 3]: 0 (0) No (%)
- Pneumonia, Grade 3 [1, 3]: 2 (4) No (%)
- Pneumonia, Total [1, 3]: 2 (4) No (%)
- Sepsis, Grade 1 [1, 3]: 0 (0) No (%)
- Sepsis, Grade 2 [1, 3]: 0 (0) No (%)
- Sepsis, Grade 3 [1, 3]: 1 (2) No (%)
- Sepsis, Grade 4 [1, 3]: 0 (0) No (%)
- Sepsis, Total [1, 3]: 1 (2) No (%)
- Thrombocytopenia, Grade 1 [1, 3]: 10 (19) No (%)
- Thrombocytopenia, Grade 2 [1, 3]: 6 (12) No (%)
- Thrombocytopenia, Grade 3 [1, 3]: 11 (21) No (%)
- Thrombocytopenia, Grade 4 [1, 3]: 10 (19) No (%)
- Thrombocytopenia, Total [1, 3]: 37 (71) No (%)
- Tumor lysis syndrome, Grade 1 [1, 3]: 0 (0) No (%)
- Tumor lysis syndrome, Grade 2 [1, 3]: 0 (0) No (%)
- Tumor lysis syndrome, Grade 3 [1, 3]: 7 (13) No (%)
- Tumor lysis syndrome, Grade 4 [1, 3]: 1 (2) No (%)
- Tumor lysis syndrome, Total [1, 3]: 8 (15) No (%)
- Urosepsis, Grade 1 [1, 3]: 0 (0) No (%)
- Urosepsis, Grade 2 [1, 3]: 0 (0) No (%)
- Urosepsis, Grade 3 [1, 3]: 0 (0) No (%)
- Urosepsis, Grade 4 [1, 3]: 1 (2) No (%)
- Urosepsis, Total [1, 3]: 1 (2) No (%)
- No (%) of Responders ([2]; 14 mg/mg/m^2 dosing during treatment, 35 pts): 22 (63) No (%)
- response rate ([2]; 21 patients without del(17)(p13.1)): 57%
- response rate ([2]; 25 patients with del(17)(p13.1)): 56%
- 95% confidence interval of response rate ([2]; 35 patients at phase 2 dose of 14 mg/m^2): 47–79%
- No (%) of Responders ([2]; Total, 52 pts): 28 (54) No (%)
- overall response to therapy ([2]; all 52 patients, IWCLL 2008 partial responses): 54%
- complete responses ([2]; all patients): no complete responses
- patients off therapy for progression of disease ([2]; all patients): 27%
- median progression free survival ([2]; all patients, Kaplan-Meier estimate): 481 days
- median time to response (range) ([2]; all responders): 85 (27–244) days
- response rate ([2]; bulky disease): 52%
- No (%) of Responders ([2]; dose level 5 mg/m^2, 4 pts): 1 (25) No (%)
- No (%) of Responders ([2]; dose level 10 mg/m^2, 3 pts): 2 (67) No (%)
- No (%) of Responders ([2]; dose level 14 mg/m^2, 16 pts): 11 (69) No (%)
- No (%) of Responders ([2]; dose level 17 mg/m^2, 4 pts): 1 (25) No (%)
- No (%) of Responders ([2]; dose level 10→14 mg/m^2, 6 pts): 4 (67) No (%)
- response rate ([2]; non-bulky (< 5 cm nodes) disease): 71%
- response rate ([2]; prior flavopiridol exposure): 38%
- response rate ([2]; recommended phase II dose (14 mg/m^2) at the final dose, 35 patients): 63%
- PET non-responders (tumor FDG uptake (SUV)): 10
- PET responders (30% or more decrease in SUV) (tumor FDG uptake (SUV)): 15
- XIAP protein level (XIAP): no significant change
